26 molecules from patent US20240279207A1, “SUBSTITUTED ACYL SULFONAMIDES FOR TREATING CANCER” (The Broad Institute, Inc., priority 2020, published 2024) can be followed below.

Assay [1] has as its target T1, Recombinant human His-tagged Kat6a protein (amino acids 194-810) (Homo sapiens, UniProt Q92794).
T1 construct: Kat6a protein (amino acids 194-810); His
In words: Kat6a activity assay (TR-FRET, acetylation of Histone-H4-derived peptide). The format is biochemical. The following applies: 60 mins at 22° C., 220 nM H4 peptide, 600 nM Acetyl Coenzyme A, read-out: KAT6A - DPF/HAT domain IC50 [mol/l] (arithmetic mean). How it is done: Kat6a inhibitory activities of the compounds described in the present invention were quantified using a Fluorescence Resonance Energy Transfer (TR-FRET) assay which measures acetylation of a synthetic, biotinylated Histone-H4-derived peptide by the enzyme.
In this case 50 nl DMSO were used instead of compounds. […] IC50 values were determined by regression analysis based on a 4 parameter equation (minimum, maximum, ICM, Hill; Y=Max+(Min−Max)/(1+(X/ICso) Hill) using the Screener Software (Genedata).

Assay [2] has as its system ESR1 transcription in MVLN cells. In words: MVLN reporter assay: repression of ESR1 transcription (luciferase signal). The class given is cell-based. The following applies: Homo sapiens, MVLN, 24 h, luciferase signal after 24 h, read-out: MVLN reporter assay, IC50 [M] (arithmetic mean). From the text: KAT6A controls transcription of the ESR1 gene in breast cancer cells. Compound treatment that interferes with this mechanism was quantified using MVLN cells. These cells constitutively express the ER and are stably transfected with the luciferase (LUC) reporter gene and the corresponding hormone responsive element derived from the 5′-flanking region of the Xenopus Vitellogenin A2 gene (Pons et al., 1990, Demirpense et al., 1993, Joyeux et al., 1993). The repressive effect on ERα transcription activity of a test chemical is directly related to the luciferase measured in the lysate of treated MVLN cells. […] Each sample was prepared as duplicate and rim wells were excluded. For luciferase signal determination 100 μl of a 1:1 mixture of Steadylite plus (Perkin Elmer; 6016759) and assay medium was added after 24 h for 15 minutes and measured in Victor X3 (Perkin Elmer). To exclude any effects caused by cell loss during the treatment, cell density was determined using Alamar Blue (Invitrogen; DAL1100). Prior to the luciferase measurement 10 μl Alamar Blue were added to each well and the plates were incubated for 2 h in the incubator. Then fluorescence was measured with Victor X3 (Perkin Elmer) at 530 nm/590 nm.
A general note: In a reporter assay the amount or activity of a reporter protein is the signal.

T1 sequence (Q92794 194-810): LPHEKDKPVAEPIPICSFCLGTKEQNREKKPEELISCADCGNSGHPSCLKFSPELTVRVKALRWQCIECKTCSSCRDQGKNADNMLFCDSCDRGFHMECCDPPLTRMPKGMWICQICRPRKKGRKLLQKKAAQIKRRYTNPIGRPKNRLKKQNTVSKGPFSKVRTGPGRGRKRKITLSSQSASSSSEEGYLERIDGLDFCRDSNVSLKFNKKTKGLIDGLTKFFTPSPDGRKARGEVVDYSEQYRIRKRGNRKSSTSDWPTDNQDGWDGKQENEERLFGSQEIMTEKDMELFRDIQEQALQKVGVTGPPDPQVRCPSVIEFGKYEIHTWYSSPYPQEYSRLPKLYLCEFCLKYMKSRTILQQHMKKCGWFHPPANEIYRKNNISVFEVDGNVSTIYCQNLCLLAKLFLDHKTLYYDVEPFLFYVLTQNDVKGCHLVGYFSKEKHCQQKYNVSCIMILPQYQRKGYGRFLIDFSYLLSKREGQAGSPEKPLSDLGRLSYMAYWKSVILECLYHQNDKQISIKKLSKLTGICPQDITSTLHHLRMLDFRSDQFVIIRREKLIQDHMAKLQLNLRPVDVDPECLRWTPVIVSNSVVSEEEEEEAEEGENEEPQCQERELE

For `CCCOc1cccc(CCC)c1S(=O)(=O)NC(=O)c1cc2c(F)cc(N3CCC3)cc2o1` [Example 31, 6-(Azetidin-1-yl)-4-fluoro-N-(2-propoxy-6-propylbenzene-1-sulfonyl)-1-benzofuran-2-carboxamide], the IC50 in assay [1] worked out at 34.9 nM; in assay [2] it was 5.02e-07 M.
With `Cc1ccc(C(C)C)cc1S(=O)(=O)NC(=O)c1cc2c(F)cc(N3CCC3)cc2o1` [Example 32, 6-(Azetidin-1-yl)-4-fluoro-N-[2-methyl-5-(propan-2-yl)benzene-1-sulfonyl]-1-benzofuran-2-carboxamide], the results for the IC50 in assay [1] and in assay [2] were 34.2 nM and 5.11e-07 M, respectively.
Consider `CCc1cccc(OCC2CC2)c1S(=O)(=O)NC(=O)c1cc2c(F)cc(N3CCC3)cc2o1` [Example 33, 6-(Azetidin-1-yl)-N-[2-(cyclopropylmethoxy)-6-ethylbenzene-1-sulfonyl]-4-fluoro-1-benzofuran-2-carboxamide], for which the IC50 in assay [1] stood at 73.5 nM; in assay [2], 5.37e-07 M.
Take `CCc1ccc(C)c(S(=O)(=O)NC(=O)c2cc3c(F)cc(N4CCC4)cc3o2)c1` [Example 34, 6-(Azetidin-1-yl)-N-(5-ethyl-2-methylbenzene-1-sulfonyl)-4-fluoro-1-benzofuran-2-carboxamide]: the IC50 in assay [1] was found to be 59.6 nM; in assay [2], 5.79e-07 M.
On to `Cc1ccc(S(=O)(=O)NC(=O)c2cc3c(F)cc(N4CCC4)cc3o2)c(OC(F)F)c1` [Example 35, 6-(Azetidin-1-yl)-N-[2-(difluoromethoxy)-4-methylbenzene-1-sulfonyl]-4-fluoro-1-benzofuran-2-carboxamide], for which the IC50 in assay [1] was 42.1 nM; in assay [2], 6.09e-07 M.
Take `CCc1csc(C)c1S(=O)(=O)NC(=O)c1cc2c(F)cc(N3CCC3)cc2o1` [Example 36, 6-(Azetidin-1-yl)-N-(4-ethyl-2-methylthiophene-3-sulfonyl)-4-fluoro-1-benzofuran-2-carboxamide]: the values for the IC50 in assay [1] and in assay [2] were 367 nM and 6.04e-07 M, respectively.
Take `Cc1noc(-c2ccccc2S(=O)(=O)NC(=O)c2cc3c(F)cc(N4CCC4)cc3o2)n1` [Example 37, 6-(Azetidin-1-yl)-4-fluoro-N-[2-(3-methyl-1,2,4-oxadiazol-5-yl)benzene-1-sulfonyl]-1-benzofuran-2-carboxamide]: the IC50 is 181 nM in assay [1] and 7.04e-07 M in assay [2].
Take `CC(C)c1cc(Br)ccc1S(=O)(=O)NC(=O)c1cc2c(F)cc(N3CCC3)cc2o1` [Example 38, 6-(Azetidin-1-yl)-N-[4-bromo-2-(propan-2-yl)benzene-1-sulfonyl]-4-fluoro-1-benzofuran-2-carboxamide]: the results for the IC50 in assay [1] and in assay [2] were 85.5 nM and 7.07e-07 M, respectively.
As for `CCCc1cccc(S(=O)(=O)NC(=O)c2cc3c(F)cc(N4CCC4)cc3o2)c1` [Example 40, 6-(Azetidin-1-yl)-4-fluoro-N-(3-propylbenzene-1-sulfonyl)-1-benzofuran-2-carboxamide], the figures for the IC50 in assay [1] and in assay [2] were 64.2 nM and 7.89e-07 M, respectively.
For `Cn1ccc2cccc(S(=O)(=O)NC(=O)c3cc4c(F)cc(N5CCC5)cc4o3)c21` [Example 41, 6-(Azetidin-1-yl)-4-fluoro-N-(1-methyl-1H-indole-7-sulfonyl)-1-benzofuran-2-carboxamide] the same measures were 90.1 nM and 8.57e-07 M.
The matching figures for `CC(C)Nc1cccc(F)c1S(=O)(=O)NC(=O)c1cc2c(F)cc(N3CCC3)cc2o1` [Example 42, 6-(Azetidin-1-yl)-4-fluoro-N-{2-fluoro-6-[(propan-2-yl)amino]benzene-1-sulfonyl}-1-benzofuran-2-carboxamide]: 179 nM and 8.64e-07 M.
As for `Cc1ccc(F)c(S(=O)(=O)NC(=O)c2cc3c(F)cc(N4CCC4)cc3o2)c1` [Example 43, 6-(Azetidin-1-yl)-4-fluoro-N-(2-fluoro-5-methylbenzene-1-sulfonyl)-1-benzofuran-2-carboxamide], the values for the IC50 in assay [1] and in assay [2] were 218 nM and 9.91e-07 M, respectively.
Regarding `CCc1noc(-c2ccccc2S(=O)(=O)NC(=O)c2cc3c(F)cc(N4CCC4)cc3o2)n1` [Example 44, 6-(Azetidin-1-yl)-N-[2-(3-ethyl-1,2,4-oxadiazol-5-yl)benzene-1-sulfonyl]-4-fluoro-1-benzofuran-2-carboxamide], the IC50 was 189 nM in assay [1] and 1.01e-06 M in assay [2].
The matching figures for `O=C(NS(=O)(=O)c1ccccc1S(=O)(=O)c1ccccc1)c1cc2c(F)cc(N3CCC3)cc2o1` [Example 45, 6-(Azetidin-1-yl)-N-[2-(benzenesulfonyl)benzene-1-sulfonyl]-4-fluoro-1-benzofuran-2-carboxamide]: 111 nM and 1.1e-06 M.
For `CCNc1ccccc1S(=O)(=O)NC(=O)c1cc2c(F)cc(N3CCC3)cc2o1` [Example 46, 6-(azetidin-1-yl)-N-[2-(ethylamino)benzene-1-sulfonyl]-4-fluoro-1-benzofuran-2-carboxamide] the same measures were 122 nM and 1.15e-06 M.
The matching figures for `CCN(C)C(=O)c1ccccc1S(=O)(=O)NC(=O)c1cc2c(F)cc(N3CCC3)cc2o1` [Example 47, 6-(Azetidin-1-yl)-N-{2-[ethyl(methyl)carbamoyl]benzene-1-sulfonyl}-4-fluoro-1-benzofuran-2-carboxamide]: 109 nM and 1.3e-06 M.
Consider `COCc1cccc(S(=O)(=O)NC(=O)c2cc3c(F)cc(N4CCC4)cc3o2)c1` [Example 48, 6-(Azetidin-1-yl)-4-fluoro-N-[3-(methoxymethyl)benzene-1-sulfonyl]-1-benzofuran-2-carboxamide], for which the IC50 in assay [1] was 281 nM; in assay [2], 1.29e-06 M.
Take `CC(C)Nc1ccc(Cl)cc1S(=O)(=O)NC(=O)c1cc2c(F)cc(N3CCC3)cc2o1` [Example 49, 6-(Azetidin-1-yl)-N-{5-chloro-2-[(propan-2-yl)amino]benzene-1-sulfonyl}-4-fluoro-1-benzofuran-2-carboxamide]: the values for the IC50 in assay [1] and in assay [2] were 67.3 nM and 1.41e-06 M, respectively.
For the molecule `O=C(NS(=O)(=O)c1c(F)cccc1NC1CC1)c1cc2c(F)cc(N3CCC3)cc2o1` [Example 50, 6-(Azetidin-1-yl)-N-[2-(cyclopropylamino)-6-fluorobenzene-1-sulfonyl]-4-fluoro-1-benzofuran-2-carboxamide], the IC50 in assay [1] is 98.7 nM; in assay [2], 1.42e-06 M.
As for `CN(C)C(=O)c1ccccc1S(=O)(=O)NC(=O)c1cc2c(F)cc(N3CCC3)cc2o1` [Example 51, 6-(Azetidin-1-yl)-N-[2-(dimethylcarbamoyl)benzene-1-sulfonyl]-4-fluoro-1-benzofuran-2-carboxamide], the results for the IC50 in assay [1] and in assay [2] were 189 nM and 1.51e-06 M, respectively.
In the case of `O=C(NS(=O)(=O)c1ccccc1CCC(F)(F)F)c1cc2c(F)cc(N3CCC3)cc2o1` [Example 52, 6-(Azetidin-1-yl)-4-fluoro-N-[2-(3,3,3-trifluoropropyl)benzene-1-sulfonyl]-1-benzofuran-2-carboxamide], the figures for the IC50 in assay [1] and in assay [2] were 101 nM and 1.55e-06 M, respectively.
Take `Cc1cccc(C(C)C)c1S(=O)(=O)NC(=O)c1cc2c(F)cc(N3CCC3)cc2o1` [Example 53, 6-(Azetidin-1-yl)-4-fluoro-N-[2-methyl-6-(propan-2-yl)benzene-1-sulfonyl]-1-benzofuran-2-carboxamide]: the IC50 in assay [1] was 698 nM; in assay [2], 1.58e-06 M.
Take `CCOCc1ccc(Cl)c(S(=O)(=O)NC(=O)c2cc3c(F)cc(N4CCC4)cc3o2)c1` [Example 54, 6-(Azetidin-1-yl)-N-[2-chloro-5-(ethoxymethyl)benzene-1-sulfonyl]-4-fluoro-1-benzofuran-2-carboxamide]: the IC50 in assay [1] amounted to 135 nM; in assay [2], 1.72e-06 M.
The matching figures for `O=C(NS(=O)(=O)c1ccccc1/C=C/C(F)(F)F)c1cc2c(F)cc(N3CCC3)cc2o1` [Example 55, 6-(Azetidin-1-yl)-4-fluoro-N-{2-[(1E)-3,3,3-trifluoroprop-1-en-1-yl]benzene-1-sulfonyl}-1-benzofuran-2-carboxamide]: 106 nM and 1.69e-06 M.
On to `O=C(NS(=O)(=O)c1cccc2nccnc12)c1cc2c(F)cc(N3CCC3)cc2o1` [Example 56, 6-(Azetidin-1-yl)-4-fluoro-N-(quinoxaline-5-sulfonyl)-1-benzofuran-2-carboxamide], for which the IC50 in assay [1] came out at 122 nM; in assay [2], 2.11e-06 M.
For `COC(=O)Cc1ccc2c(S(=O)(=O)NC(=O)c3cc4c(F)cc(N5CCC5)cc4o3)cccc2c1` [Example 57, Methyl (5-{[6-(azetidin-1-yl)-4-fluoro-1-benzofuran-2-carbonyl]sulfamoyl}naphthalen-2-yl)acetate], the IC50 is 120 nM in assay [1] and 2.5e-06 M in assay [2].
